How the values were obtained:
CREB = conditions: after 5 minutes stimulation (not shown)
Description: The cyclic AMP-responsive element binding protein (CREB) is a post-translationally activated transcription factor that has been implicated in numerous neuronal functions including cell survival, differentiation and neurotransmission.
Approximately 7.5×10^5 PC12 cells per well were plated in collagen coated 6-well plates in DMEM with 0.75% FCS and 0.75% DHS and incubated for 48 hours. Cells were then further starved for 2 hours in serum free DMEM before stimulation with the indicated compounds for 5, 10 or 20 minutes. Cells were harvested in 1× heated sample buffer (2% SDS, 400 mM Tris, pH 8.0, 10 mM DTT and 0.25 mM Na3VO4) and the cell lysates were electrophoresed on 8-18% gradient SDS gels, which were electroblotted to PVDF membranes.
Phosphorylated CREB were immunodetected by using rabbit anti-Phospho-CREB (UpState Biotechnology #06-519) followed by HRP-linked anti-rabbit antibody (Amersham Life Science #NA 934). Bands were detected by chemilumininescence using the ECL system (Amersham).

PC12 cells [1] = test: Survival of differentiated PC12 cells in serum-free medium (MTS); assay type: cell-based; conditions: for Survival Effects on Differentiated PC12 Cells in Serum-free Medium (% of 3 nM NGF): 4 days incubation, MTS; for Rescue of PC12 cells in serum-free medium: viability as reduction of MTS
Description: In this experiment the protective effect of the compounds on the survival of the pheochromocytoma cell line PC12 deprived of other survival factors were assessed following differentiation of the cells to a neuron-like phenotype.
Cells were seeded in collagen coated 96 well plates at a cell density of 8,000/cm^2 in DMEM with 7.5% Foetal Calf Serum (FCS), 7.5% Donor Horse Serum (DHS) and 2 nM NGF and cultured for 6 days. The medium was then changed to DMEM without serum supplemented with the compound in the indicated concentrations. As a positive control, parallel wells receiving serum-free DMEM without addition of vehicle […] 3 nM NGF were included.
After 4 days of incubation, cell viability was evaluated by using MTS (3-(4,5-dimethylthiazol-2-yl)-5-(3-carboxymethoxyphenyl)-2-(4-sulfonyl)2H-tetrazolium) which is reduced by metabolically active cells. Data are expressed as % of the response seen with 3 nM NGF corrected for residual MTS reduction activity in the parallel serum-free cultures (“% of NGF control”).

PC12 cells [2] = conditions: two days
Description: In this experiment the ability of the compounds to potentiate NGF-induced neurite outgrowth in PC12 cells was assessed.
PC12 cells were seeded in tissue culture plates coated with collagen at a cell density of 15,000/cm^2 in DMEM with 7.5% FCS and 7.5% DHS. Next day the medium was changed to medium supplemented with the NS compound in the absence or presence of NGF.
Two days after the medium change, cells were fixed in 4% paraformaldehyde and stained for neurofilament. Cells were fixed by in tissue culture plates by incubation in 4% paraformaldehyde in PBS followed permeabilization in 0.05% Triton-X100 in the presence of 10% DHS to block non-specific binding sites. After washing, the plates were incubated with anti-neurofilament (NF) antibody (clone RT97) from Boehringer diluted 1:200 in 0.05% Triton-X100/10% DHS followed by incubation with biotinylated anti-mouse immunoglobulin RPN1001 (Amersham) diluted 1:200. NF-immunoreactive cells were stained using the ABC-complex/HRP kit K0355 (DAKO) and 3,3-diaminobenzidine tetrahydrochloride (DAB) as substrate.
Estimation of total cell number per well, as well as the total neurite length was done using unbiasedly 2D stereology (CAST-grid system connected to a Olympus BH-2 microscope).

[3] = test system: dopaminergic neurons from rat E14 ventral mesencephali; conditions: 1 μM; E14 rat VM; 7 days in culture
Description: Embryonic rat brains (Wistar; E14) were isolated under sterile conditions placed in chilled Gey's balanced salt solution (GIBCO) with glucose (6.5 mg/ml).
The ventral mesencephali were dissected out, cut into small tissue pieces, placed in Neurobasal medium with B27 supplement and gently pressed through a 80 μm Nitex filter. The cells were counted using a hemocytometer and plated in a 6 well multi-dish at a density of approximately 2.0×10^6 cells/well. Culture dishes were pre-coated with poly-D-lysine.
After 1 hour, the medium was removed and fresh medium added (1.5 ml/well). […] Untreated cultures served as controls. The medium was changed every other day and antimitotics and antibiotics were not used at any stage.
After 7 days in culture, cultures were then immunostained for tyrosine hydroxylase (TH). Briefly, the cells were washed in 0.05M tris-buffered saline (TBS, pH 7.4) containing 1% Triton X-100 for 3×15 minutes and incubated with 10% foetal bovine serum (FBS, Life Technologies) in TBS for 30 minutes. The cells were then incubated for 24 hours at 4° C. with monoclonal mouse anti-TH antibody (Boehringer Mannheim) diluted 1:600 in TBS with 10% FBS. After rinsing in TBS with 1% Triton X-100 for 3×15 minutes, cells were incubated for 60 minutes with biotinylated anti-mouse IgG antibody (Amersham) diluted 1:200 in TBS with 10% FBS. […] TH-immunoreactive (ir) cells were counted manually.

[4] = test system: dopaminergic neurons from pig E28 ventral mesencephali; conditions: 1 μM; E28 pig VM slice cultures; 21 days in vitro
Description: Ventral mesencephali (VM) were isolated from porcine embryos (E28) under sterile conditions, chopped into 400 μm slices and placed in chilled Gey's balanced salt solution (GIBCO) with glucose (6.5 mg/ml).
In brief, slices were placed on semiporous membranes (Millipore, 0.3 μm; 4 slices/membrane) placed as inserts in 6-well plates (Costar) with serum containing medium (Gibco BRL). Each well contained 1 ml medium (50% Optimem, 25% horse serum, 25% Hank's balanced salt solution (all GIBCO)) supplemented with D-glucose to a final concentration of 25 mM.
At day 3, the medium was replaced by defined serum-free medium (Neurobasal medium with B27 supplement from Life Technologies). The cultures were grown in an incubator with 5% CO2 at 36° C. for 21 days after which the sections were immunostained for TH as described in Example 4. […] Untreated cultures served as controls. The medium was changed twice a week and antimitotics and antibiotics were not used at any stage.
The area of the culture slice was delineated and a counting frame was randomly placed to mark the first area to be sampled.

Akt kinase = conditions: 1-3 μM; PC12 cells; 24 hours with NGF
Description: (§1) Approximately 200,000 PC12 cells were plated in a 24 well plate in DMEM with 7.5% FCS and 7.5% DHS and incubated ON.
(§2) Total cell lysate was electrophoresed on 8-18% gradient SDS gels which were electroblotted to PVDF membranes. Phosphorylated ERK1 and ERK2 were immunodetected by using mouse anti-Phospho-p44/p42 MAP kinase E10 mAb (New England Biolabs #9106) and HRP-linked anti-mouse antibody. Phosphorylated Akt kinase was immunodetected by using rabbit phospho-specific Akt (Ser473) antibody (New England Biolabs # 9271) and HRP-linked anti-rabbit antibody. Bands were detected by chemilumininescence using the ECL system (Amersham).

the ERKs (ERK1 and ERK2) = conditions: 1-3 μM; PC12 cells; 24 hours with NGF
Description: as §1, §2

[5] = test system: transient global ischaemia in gerbils (hippocampal CA1-layer damage); conditions: gerbil; 4 minutes ischaemia; 2×30 mg/kg ip. after the insult; four days later
Description: Gerbils were anaesthetised with halothane, right and left carotid arteries located and occluded for 4 minutes. Animals were kept at normal body temperature before and after the operation using heating lamps. During the operation, the gerbils were placed on heating pads, the body temperature was controlled and maintained at 37±0.5° C.
Four days later, the animals were sacrificed, brains removed and cooled to −70° C. Thereafter, the brains were sectioned in 20 μm thick sections of which 5-7 with hippocampal tissue were selected and stained with hematoxylin-eosin.
The degree of hippocampal damage was categorised into one of four groups:
Group 1: no damage in the CA1-layer;
Group 2: the CA1-layer partly damaged;
Group 3: the CA1-layer completely damaged; and
Group 4: damage in more then just the CA1-layer. The total ischaemia score was obtained as the sum of scores in the right- and left hemisphere. Kendall's tau test was used for statistic evaluation.

Row | SMILES | Combined effect of NGF and compound on CREB phosphorylation (CREB) | Survival Effects on Differentiated PC12 Cells in Serum-free Medium (% of 3 nM NGF) (PC12 cells [1]; 0.1 μM) | Survival Effects on Differentiated PC12 Cells in Serum-free Medium (% of 3 nM NGF) (PC12 cells [1]; 0.2 μM) | Survival Effects on Differentiated PC12 Cells in Serum-free Medium (% of 3 nM NGF) (PC12 cells [1]; 0.5 μM) | Survival Effects on Differentiated PC12 Cells in Serum-free Medium (% of 3 nM NGF) (PC12 cells [1]; 0.75 μM) | Survival Effects on Differentiated PC12 Cells in Serum-free Medium (% of 3 nM NGF) (PC12 cells [1]; 1 μM) | Survival Effects on Differentiated PC12 Cells in Serum-free Medium (% of 3 nM NGF) (PC12 cells [1]; 2 μM) | Survival Effects on Differentiated PC12 Cells in Serum-free Medium (% of 3 nM NGF) (PC12 cells [1]; 5 μM) | Survival Effects on Differentiated PC12 Cells in Serum-free Medium (% of 3 nM NGF) (PC12 cells [1]; 7.5 μM) | Survival Effects on Differentiated PC12 Cells in Serum-free Medium (% of 3 nM NGF) (PC12 cells [1]; 10 μM) | Rescue of PC12 cells in serum-free medium (PC12 cells [1]) | Effect on neurite outgrowth in PC12 cells, compound alone (PC12 cells [2]; 1 and 3 μM, without NGF) | Potentiation of NGF-induced neurite outgrowth in PC12 cells (PC12 cells [2]; with NGF) | More TH-immunoreactive cells compared to untreated control cultures [3] [%] | More TH-immunoreactive cells compared to untreated control cultures [4] [%] | Effect on NGF-induced phosphorylation of the Akt kinase (Akt kinase) | Effect on NGF-induced phosphorylation of the ERKs (the ERKs (ERK1 and ERK2)) | Animals with no or only partially damage in the CA1 neurons of the hippocampus [5]
1 | CN1CCc2c(-c3ccc(Cl)cc3)cc3c(c2C1)NC(=O)C3=NO.Cl [Compound G-1, 5-(4-Chlorophenyl)-8-methyl-6,7,8,9-tetrahydro-1-H-pyrrolo[3.2-h]isoquinoline-2,3-dione-3-oxime hydrochloric acid salt] | additive effect | 11.09 ± 1.42 % of 3 nM NGF | 12.78 ± 2.01 % of 3 nM NGF | 28.62 ± 1.77 % of 3 nM NGF | 32.05 ± 3.36 % of 3 nM NGF | 52.60 ± 3.40 % of 3 nM NGF | 60.47 ± 2.26 % of 3 nM NGF | 74.85 ± 4.67 % of 3 nM NGF | 62.08 ± 3.70 % of 3 nM NGF | 63.80 ± 4.09 % of 3 nM NGF | dose-dependent rescue | some effect on neurite outgrowth | significantly potentiate NGF-induced neurite outgrowth | 81 | 37 | potentiate NGF-induced phosphorylation | potentiate NGF-induced phosphorylation | –
2 | Cl.O=C1Nc2c(cc(-c3ccc(Cl)cc3)c3c2CCCC3)C1=NO [Compound G-2, 5-(4-Chlorophenyl)-6,7,8,9-tetrahydro-1-H-pyrrolo[3.2-h]naphthalene-2,3-dione-3-oxime hydrochloric acid salt] | – | 7.77 ± 1.86 % of 3 nM NGF | 16.58 ± 4.36 % of 3 nM NGF | 17.30 ± 4.43 % of 3 nM NGF | 23.54 ± 1.60 % of 3 nM NGF | 27.63 ± 6.91 % of 3 nM NGF | 33.31 ± 5.22 % of 3 nM NGF | 50.25 ± 4.28 % of 3 nM NGF | 54.83 ± 4.37 % of 3 nM NGF | 74.66 ± 5.70 % of 3 nM NGF | dose-dependent rescue | – | – | – | – | – | – | ≈ 50%
3 | O=C1Nc2ccc(-c3ccc(Cl)cc3)cc2C1=NO [Compound G-3, 5-(4-Chlorophenyl)isatin-3-oxime] | – | −0.34 ± 1.59 % of 3 nM NGF | 23.83 ± 3.61 % of 3 nM NGF | 28.20 ± 2.55 % of 3 nM NGF | 30.66 ± 3.83 % of 3 nM NGF | 36.11 ± 3.02 % of 3 nM NGF | 41.53 ± 3.00 % of 3 nM NGF | 49.63 ± 4.67 % of 3 nM NGF | 67.60 ± 5.54 % of 3 nM NGF | 72.23 ± 4.34 % of 3 nM NGF | dose-dependent rescue | – | – | – | – | – | – | –
